Source: patent US20210154202A1, “SYNTHESIS OF DENTIMOL, AN ANTIGLAUCOMA DRUG” (Virginia Commonwealth University, priority 2018, published 2021)

Assays:
NIH 3T3 fibroblasts = experiment: Cytotoxicity study, WST-1 cell proliferation assay; format: cell-based; details: no concentration stated
Procedure: Cytotoxicity study. NIH 3T3 fibroblasts were seeded in a 96-well plate at 5000 cells per well and allowed 24 h to attach. The cells were maintained in DMEM medium supplemented with 10% serum, streptomycin […] and penicillin (100 U/mL) at 37° C. in 95% air/5% CO2. Upon the removal of the medium, the cells were incubated with fresh DMEM medium (control) or fresh medium containing various amounts of OTM, OTM-PEG, or DenTimol (n=8) for 24 h. Cell viability relative to untreated cells was determined using the WST-1 cell proliferation assay.

[1] = test system: rats (cornea, ciliary body, retina); experiment: In vivo safety assessment, ocular tolerance and histology after once-daily dosing for seven days
Procedure: In vivo safety assessment. To assess in vivo ocular tolerance, rats received OTM, timolol, or DenTimol (2×5 μL, 0.5% w/v OTM equivalent) in the right eye once daily for seven days. At the conclusion of the experiment, the rats were euthanized. The eyes were enucleated and immediately fixed in Davidson's solution, and 5 μm sections prepared for histological evaluation.

[2] = Water solubility / hydrophobicity as stated; format: physicochemical
[3] = Ex vivo corneal permeation study, Franz diffusion cells; format: in vitro ADME; details: rabbit cornea, 37° C., 3.7 mM OTM equivalent donor
Procedure: Ex vivo corneal permeation study. Corneal permeability was determined using Franz diffusion cells (PermeGear, Hellertown, Pa.). Corneas were extracted from fresh rabbit eyes and placed immediately into diffusion cells with the endothelial surface facing the acceptor chamber and the epithelial surface facing the donor chamber. The acceptor chamber was filled with 5 mL of glutathione buffered Ringer's solution, and the donor chamber with 100 μL of a solution containing 1 mg of DenTimol (3.7 mM OTM equivalent). For comparison, permeation of OTM and OTM-PEG across the cornea were also tested at the same OTM equivalent concentration. The diffusion cells were placed in a water bath at 37° C. At various time points, 250 μL samples were withdrawn from the acceptor chamber, and drug concentrations were measured using the reverse phase HPLC system.

[4] = delivered as a topical solution; cited from earlier work

| Drug permeated through the cornea in 4 h [3] [%] | Structure (SMILES) | Toxicity of OTM (stated) (NIH 3T3 fibroblasts) | Histology (H&E) of cornea, ciliary body and retina after repeated dosing [1] | Water solubility / hydrophobicity [2] | Period after a dose within therapeutic concentration window in the anterior chamber [4] [h] | Share of total drug reaching the target organ with each dose [4] |
| --- | --- | --- | --- | --- | --- | --- |
|  | C1CN(c2nsnc2OC[C@@H]2CO2)CCO1 [OTM, (S)-4-[4-(Oxiranylmethoxy)-1,2,5-thiadiazol-3-yl]morpholine] | non-toxic | did not alter the structures of the cornea, ciliary body, and retina | highly hydrophobic |  |  |
| 3.5 | CC(C)(C)NC[C@H](O)COc1nsnc1N1CCOCC1 [timolol] |  |  |  | 4 to 5 | about 5% |
